Values of other authors as cited in patent US11654095B2, “Method for dyeing keratinous material, comprising the use of an organosilicon compound, a chromophoric compound, a modified fatty acid ester and a sealing reagent II” (Henkel AG & Co. KGaA, priority 2019, dated 2023).
Read-outs that look alike come from different tables or passages of the source.

| solubility in water (water at 25° C.) | SMILES | solubility in water (25° C.) |
| --- | --- | --- |
|  | O=S(=O)([O-])c1ccc(N=Nc2c(O)ccc3ccccc23)cc1.[Na+] [Acid Orange 7, sodium salt of 4-[(2-hydroxy-1-naphthyl)azo]benzene sulphonate] | more than 7 g/L |
|  | Nc1cc(S(=O)(=O)[O-])cc2cc(S(=O)(=O)[O-])c(N=Nc3ccccc3)c(O)c12.[Na+].[Na+] [Acid Red 33, disodium salt of 5-amino-4-hydroxy-3-(phenylazo)-naphthalene-2,7-disulphonate] | 2500 µg/mL |
|  | O=C([O-])c1c(Cl)c(Cl)c(Cl)c(Cl)c1-c1c2c(Br)cc(=O)c(Br)c-2oc2c(Br)c(O)cc(Br)c12.O=C([O-])c1c(Cl)c(Cl)c(Cl)c(Cl)c1-c1c2c(Br)cc(=O)c(Br)c-2oc2c(Br)c(O)cc(Br)c12.[Na+].[Na+] [Acid Red 92, disodium salt of 3,4,5,6-tetrachloro-2-(1,4,5,8-tetrabromo-6-hydroxy-3-oxoxanthen-9-yl)benzoic acid] | greater than 10 g/L |
| highly soluble | O=C([O-])C1=NN(c2ccc(S(=O)(=O)[O-])cc2)C(=O)C1N=Nc1ccc(S(=O)(=O)[O-])cc1.[Na+].[Na+].[Na+] (stereo not shown) [Acid Yellow 23, trisodium salt of 4,5-dihydro-5-oxo-1-(4-sulfophenyl)-4-((4-sulfophenyl)azo)-1H-pyrazole-3-carboxylic acid] |  |
